Data reported in patent US20220133894A1, “BISPHOSPHONATE-LINKED COMPOUNDS” (OREGON HEALTH & SCIENCE UNIVERSITY, priority 2019, published 2022).

How the values were obtained:
Type in all cases: cell-based, human
PC3-M cells [1] = test: three-day MTT cell growth assay, chemotherapy with or without KBU2046; settings: 10 μM KBU2046, 3 day growth assay, androgen independent PC3-M cells
Protocol: FIG. 1A depicts the effect of chemotherapy on the growth of androgen independent PC3-M PCa cells in vitro. Data are the mean±SEM (N=3 replicates) of cell viability in a 3 day growth assay in the presence of 10 μM KBU2046 or vehicle (control) treated with docetaxel or cabazitaxel. FIG. 1B depicts the effect of chemotherapy on the growth of androgen independent PCa cells in vivo. Mice received subcutaneous implants of PC3-M cells, were monitored until tumors were detectable (250 mm^3), and then treated daily with oral 80 mg KBU2046/kg (46) or vehicle (CO) and with weekly intraperitoneal docetaxel (doc) at 0 or 20 mg/kg, beginning on day 1, and tumor size measured. Data are mean±SEM, with N=20 mice per cohort.
To assess the impact of cytotoxic chemotherapy on PCa growth kinetics seven-day soft agar colony formation assays and three-day MTT cell growth inhibition assays were performed as described by us (Pavese et al., Cancer Lett 352, 179-186 (2014)). MTT assays were in replicates of N=3, and were repeated, soft agar assays were in replicates of N=2 and are presented as mean number of colonies, expressed as percent of untreated controls.

VCaP cells = test: SRB growth inhibition assay, VCaP; settings: 10 μM enzalutamide, 10 μM KBU2046 added to control or enzalutamide treated cells, 72 hours
Protocol: LNCaP or VCaP cells cultured in hormone free media were treated with R1881 (R), KBU2046 (46) and/or enzalutamide (E). (FIGS. 3A and 3B) Effects on AR-responsive gene expression. PSA expression was measured by qRT/PCR, normalized to GAPDH and expressed as a percent of control cells (N=3 replicates); * denotes P<0.05 for groups separated by bar. (FIGS. 3C and 3D) Effects on cell growth. Three day growth assays were performed. Data are the number of viable cells, expressed as % of control (N=3 replicates); * P<0.05 compared to control. (E) Effects on AR activation. Western blots of nuclear (N) and cytoplasmic (C) preparations of cell extracts were probed for AR, laminin 1 or α-tubulin. (FIGS. 3F and 3G) Effects on tumor outgrowth after androgen deprivation therapy. LNCaP/AR-luc cells were implanted subcutaneously (N=6 mice/cohort) or orthotopic (N=15 mice/cohort were implanted; N=5 yielded tumors) into castrate mice, treatment with KBU2046 began as noted, and weekly IVIS imaging performed. Data are tumor size, expressed as luminescence intensity. All data are expressed as mean±SEM.
Enzalutamide mediated growth inhibition was assessed using Sulforhodamine B (SRB) growth inhibition assays, were performed as previously described (49). In brief, LNCaP and VCaP cells were pre-incubated in charcoal-striped medium for 48 hours and then seeded (1.9×10^4) in 96-well plates. […]

PC3-M cells [2] = test: 7 day colony formation assay, chemotherapy with or without KBU2046
Protocol: To assess the impact of cytotoxic chemotherapy on PCa growth kinetics seven-day soft agar colony formation assays and three-day MTT cell growth inhibition assays were performed as described by us ([…] et al., Cancer Lett 352, 179-186 (2014)). MTT assays were in replicates of N=3, and were repeated, soft agar assays were in replicates of N=2 and are presented as mean number of colonies, expressed as percent of untreated controls. For PC3-M PCa and MDA-MB-231 triple negative breast cancer cells, data are the mean±SD (N=2 replicates) number of colonies in 7 day colony formation assays. All data are expressed as the percentage of untreated control cells. Cells were treated with 10 μM KBU2046 or vehicle (CO), and the indicated concentration and type of chemotherapy.

O=C1c2ccccc2OCC1c1ccc(F)cc1 (stereo not drawn) [KBU2046, 3-(4-fluorophenyl)chroman-4-one]
effect of KBU2046 on the ability of docetaxel or cabazitaxel to inhibit cell growth (PC3-M cells [1]): did not affect | cell growth (VCaP cells): no significant effect | effect on activity of adriamycin (PC3-M cells [2]; 10 μM KBU2046, PC3-M cells, FIG. 14): does not inhibit | effect on activity of vinblastine (PC3-M cells [2]; 10 μM KBU2046, PC3-M cells, FIG. 16): does not inhibit | effect on activity of taxol (PC3-M cells [2]; 10 μM KBU2046, PC3-M cells, FIG. 18): does not inhibit | interference upon cytotoxic action of adriamycin, taxol and vinblastine (PC3-M cells [2]; KBU2046 co-administered, PC3-M cells): lack of interference
